SMILES | melting point [°C]
C#CCOc1ccc2nc(C(=O)c3ccc(C(C)(C)C)cc3)nc(-c3ccc(C(C)C)cc3)c2c1 [Example 1, (4-tert-Butyl-phenyl)-[4-(4-isopropyl-phenyl)-6-propargyloxy-quinazolin-2-yl]-methanone] | 166 to 168
C#CCOc1ccc2nc(C(=O)c3ccc(F)cc3)nc(-c3ccc(C(C)C)cc3)c2c1 [Example 6, (4-Fluoro-phenyl)-[4-(4-isopropyl-phenyl)-6-propargyloxy-quinazolin-2-yl]-methanone] | 124 to 126
C#CCOc1ccc2nc(C(=O)c3cccc(Cl)c3)nc(-c3ccc(C(C)C)cc3)c2c1 [Example 8, (3-Chloro-phenyl)-[4-(4-isopropyl-phenyl)-6-propargyloxy-quinazolin-2-yl]-methanone] | 128 to 130
C#CCOc1ccc2nc(C(=O)c3ccc(Cl)cc3)nc(-c3ccc(C(C)C)cc3)c2c1 [Example 9, (4-Chloro-phenyl)-[4-(4-isopropyl-phenyl)-6-propargyloxy-quinazolin-2-yl]-methanone] | 108 to 110
C#CCOc1ccc2nc(C(=O)c3cccc(F)c3)nc(-c3ccc(C(C)(C)C)cc3)c2c1 [Example 11, (3-Fluoro-phenyl)-[4-(4-tert.butyl-phenyl)-6-propargyloxy-quinazolin-2-yl]-methanone] | 156 to 158
C#CCOc1ccc2nc(C(=O)c3ccc(Br)cc3)nc(-c3ccc(C(C)C)cc3)c2c1 [Example 13, (4-Bromo-phenyl)-[4-(4-isopropyl-phenyl)-6-propargyloxy-quinazolin-2-yl]-methanone] | 97 to 100
C#CCOc1ccc2nc(C(=O)c3ccc(CCC)cc3)nc(-c3ccc(C(C)C)cc3)c2c1 [Example 16a, (4-Propyl-phenyl)-[4-(4-isopropyl-phenyl)-6-propargyloxy-quinazolin-2-yl]-methanone] | 140 to 142
C#CCOc1ccc2nc(C(=O)c3ccc(C#N)cc3)nc(-c3ccc(C(C)C)cc3)c2c1 [Example 17, (4-Cyano-phenyl)-[4-(4-isopropyl-phenyl)-6-propargyloxy-quinazolin-2-yl]-methanone] | 130 to 132
C#CCOc1ccc2nc(C(=O)c3ccc(SC)cc3)nc(-c3ccc(C(C)C)cc3)c2c1 [Example 18, (4-Methylthio-phenyl)-[4-(4-isopropyl-phenyl)-6-propargyloxy-quinazolin-2-yl]-methanone] | 161 to 164
C#CCOc1ccc2nc(C(=O)c3ccc(S(C)(=O)=O)cc3)nc(-c3ccc(C(C)C)cc3)c2c1 [Example 19, (4-Methansulfonyl-phenyl)-[4-(4-isopropyl-phenyl)-6-propargyloxy-quinazolin-2-yl]-methanone] | 181 to 184
C#CCOc1ccc2nc(C(=O)c3ccc(N(C)C)cc3)nc(-c3ccc(C(C)C)cc3)c2c1 [Example 20, (4-Dimethylamino-phenyl)-[4-(4-isopropyl-phenyl)-6-propargyloxy-quinazolin-2-yl]-methanone] | 148 to 151
C#CCOc1ccc2nc(C(=O)c3ccc(OCC)cc3)nc(-c3ccc(C(C)C)cc3)c2c1 [Example 21, (4-Ethoxy-phenyl)-[4-(4-isopropyl-phenyl)-6-propargyloxy-quinazolin-2-yl]-methanone] | 117 to 119
C#CCOc1ccc2nc(C(=O)c3ccc(C(=O)OC)cc3)nc(-c3ccc(C(C)C)cc3)c2c1 [Example 22, 4-[4-(4-Isopropyl-phenyl)-6-propargyloxy-quinazoline-2-carbonyl]-benzoic acid methyl ester] | 108 to 110
C#CCOc1ccc2nc(C(=O)c3ccc(N(C)C)cc3)nc(-c3ccc(C(C)(C)C)cc3)c2c1 [Example 23, (4-Dimethylamino-phenyl)-[4-(4-tert.butyl-phenyl)-6-propargyloxy-quinazolin-2-yl]-methanone] | 150 to 152
C#CCOc1ccc2nc(C(=O)c3ccc(O)cc3)nc(-c3ccc(C(C)C)cc3)c2c1 [Example 30, (4-Hydroxy)-[4-(4-isopropyl-phenyl)-6-propargyloxy-quinazolin-2-yl]-methanone] | 185 to 187
C#CCOc1ccc2nc(C(=O)c3ccc(OCCCC)cc3)nc(-c3ccc(C(C)C)cc3)c2c1 [Example 31, (4-Butyloxy)-[4-(4-isopropyl-phenyl)-6-propargyloxy-quinazolin-2-yl]-methanone] | 91 to 93
C#CCOc1ccc2nc(C(=O)c3ccco3)nc(-c3ccc(C(C)C)cc3)c2c1 [Example 32, Furan-2-yl-[4-(4-isopropyl-phenyl)-6-propargyloxy-quinazolin-2-yl]-methanone] | 150 to 151
C#CCOc1ccc2nc(C(=O)c3ccoc3)nc(-c3ccc(C(C)C)cc3)c2c1 [Example 34, Furan-3-yl-[4-(4-isopropyl-phenyl)-6-propargyloxy-quinazolin-2-yl]-methanone] | 133
C#CCOc1ccc2nc(C(=O)c3sccc3C)nc(-c3ccc(C(C)C)cc3)c2c1 [Example 36] | 130 to 132
C#CCOc1ccc2nc(C(=O)c3cccn3C)nc(-c3ccc(C(C)C)cc3)c2c1 [Example 39, (1-Methyl-1H-pyrrol)-2-yl-[4-(4-isopropyl-phenyl)-6-propargyloxy-quinazolin-2-yl]-methanone] | 126 to 128

Results, then the molecule that gave them:

melting point [°C] | SMILES
118 to 120 | C#CCOc1ccc2nc(C(=O)c3cccc(F)c3)nc(-c3ccc(C(C)C)cc3)c2c1 [Example 7, (3-Fluoro-phenyl)-[4-(4-isopropyl-phenyl)-6-propargyloxy-quinazolin-2-yl]-methanone]
105 to 107 | C#CCOc1ccc2nc(C(=O)c3ccc(F)cc3)nc(-c3ccc(C(C)(C)C)cc3)c2c1 [Example 10, (4-Fluoro-phenyl)-[4-(4-tert.butyl-phenyl)-6-propargyloxy-quinazolin-2-yl]-methanone]
132 | C#CCOc1ccc2nc(C(=O)c3cccc(Br)c3)nc(-c3ccc(C(C)C)cc3)c2c1 [Example 12, (3-Bromo-phenyl)-[4-(4-isopropyl-phenyl)-6-propargyloxy-quinazolin-2-yl]-methanone]
130 to 132 | C#CCOc1ccc2nc(C(=O)c3ccc(C)cc3)nc(-c3ccc(C(C)C)cc3)c2c1 [Example 14, (4-Methyl-phenyl)-[4-(4-isopropyl-phenyl)-6-propargyloxy-quinazolin-2-yl]-methanone]
132 to 134 | C#CCOc1ccc2nc(C(=O)c3ccc(C(C)C)cc3)nc(-c3ccc(C(C)C)cc3)c2c1 [Example 15, (4-Isopropyl-phenyl)-[4-(4-isopropyl-phenyl)-6-propargyloxy-quinazolin-2-yl]-methanone]
108 to 111 | C#CCOc1ccc2nc(C(=O)c3ccc(CC)cc3)nc(-c3ccc(C(C)C)cc3)c2c1 [Example 16, (4-Ethyl-phenyl)-[4-(4-isopropyl-phenyl)-6-propargyloxy-quinazolin-2-yl]-methanone]
169 to 172 | C#CCOc1ccc2nc(C(=O)c3ccc(N(C)C)cc3)nc(-c3ccc(C4CC4)cc3)c2c1 [Example 24, (4-Dimethylamino-phenyl)-[4-(4-cyclopropyl-phenyl)-6-propargyloxy-quinazolin-2-yl]-methanone]
132 to 134 | C#CCOc1ccc2nc(C(=O)c3ccc(C(=O)OCC)cc3)nc(-c3ccc(C(C)C)cc3)c2c1 [Example 25, 4-[4-(4-Isopropyl-phenyl)-6-propargyloxy-quinazoline-2-carbonyl]-benzoic acid ethyl ester]
150 to 152 | C#CCOc1ccc2nc(C(=O)c3ccc(OC)cc3)nc(-c3ccc(C(C)(C)C)cc3)c2c1 [Example 26, (4-Methoxy-phenyl)-[4-(4-tert.butyl-phenyl)-6-propargyloxy-quinazolin-2-yl]-methanone]
147 to 149 | C#CCOc1ccc2nc(C(=O)c3ccc(OC)cc3)nc(-c3ccc(C4CC4)cc3)c2c1 [Example 27]
148 | C#CCOc1ccc2nc(C(=O)c3ccc(OC)c(OCC)c3)nc(-c3ccc(C(C)C)cc3)c2c1 [Example 28, (3-Ethoxy-4-methoxy-phenyl)-[4-(4-isopropyl-phenyl)-6-propargyloxy-quinazolin-2-yl]-methanone]
130 to 132 | C#CCOc1ccc2nc(C(=O)c3ccc(OC(C)(C)C)cc3)nc(-c3ccc(C(C)C)cc3)c2c1 [Example 29, (4-tert.Butyloxy-phenyl)-[4-(4-isopropyl-phenyl)-6-propargyloxy-quinazolin-2-yl]-methanone]
170 | C#CCOc1ccc2nc(C(=O)c3ccoc3)nc(-c3ccc(C(C)(C)C)cc3)c2c1 [Example 33, Furan-3-yl-[4-(4-tert.butyl-phenyl)-6-propargyloxy-quinazolin-2-yl]-methanone]
113 to 117 | C#CCOc1ccc2nc(C(=O)c3cccs3)nc(-c3ccc(C(C)C)cc3)c2c1 [Example 35, Thiophen-2-yl-[4-(4-isopropyl-phenyl)-6-propargyloxy-quinazolin-2-yl]-methanone]
167 to 169 | C#CCOc1ccc2nc(C(=O)c3cc4ccccc4s3)nc(-c3ccc(C(C)C)cc3)c2c1 [Example 37, Benz[b]thiophen-2-yl-[4-(4-isopropyl-phenyl)-6-propargyloxy-quinazolin-2-yl]-methanone]
